The test system of test [1] is S. cerevisiae wild-type background strain growth inhibition. Briefly: growth inhibition of vps1Δ apl2Δ yeast, dose response, post-Golgi transport modulator project, S. cerevisiae, background strain comparison (AID 788). The settings on record: S. cerevisiae vps1Δ apl2Δ growth inhibition, dose response; measured here: wild-type background strain growth.
Test [2] deals with S. cerevisiae vps1Δ apl2Δ growth inhibition, dose response. The description is as above.

The source made the active and inactive calls. How the calls were made is not given here. Bounds are passed on as bounds.

Turning to `CCCCCOc1ccc(Cl)cc1CN1CCOCC1`, the half-inhibitory concentration (IC50) (commonly the point on the concentration scale where inhibition reaches its midpoint) in test [1] is over 10 µM; in test [2] it was 20.6 µM.

Take `Cc1sc(NC(=O)c2ccco2)c(C(c2cccnc2)N2CCC(C)CC2)c1C` (stereo unspecified): the concentration for half-maximal inhibition (IC50) in test [1] is 5.77 µM; in test [2] it was 9.99 µM (inactive).

As for `Cc1c(Cc2ccccc2)c(=O)oc2c(C)c(OCc3nn[nH]n3)ccc12`, the IC50 in test [1] is over 10 µM; in test [2], > 10 µM (inactive).

On to `COc1cc2[nH]c(=S)n(CCCN3CCOCC3)c(=O)c2cc1OC`, for which the IC50 in test [1] was over 10 µM; in test [2] it was > 10 µM (inactive).

Regarding `CCc1n[nH]c2c1/C(=N\O)CC(C)(C)C2`, the IC50 in test [1] was over 10 µM; in test [2] it was > 10 µM (inactive).

In the case of `CCCCC(c1nnnn1Cc1ccco1)N1CCN(c2nc3ccccc3s2)CC1` (stereo unspecified), the IC50 in test [1] is 3.9 µM; in test [2], 19.7 µM (inactive).

As for `COc1ccccc1N1CCN(CC(O)c2ccc3cc[nH]c3c2)CC1` (stereo unspecified), the IC50 was over 10 µM in test [1] and > 10 µM (inactive) in test [2].

For the molecule `COc1ccc(C2C3=C(CCCC3=O)Nc3nc(-c4cc(OC)c(OC)c(OC)c4)nn32)cc1OC` (stereo unspecified), the IC50 in test [1] was over 10 µM; in test [2] it was > 10 µM (inactive).

For `CCCCS(=O)(=O)/C=C\C=C/S(=O)(=O)CCCC`, the IC50 in test [1] was 13.9 µM; in test [2], 12.1 µM.

On to `NC(=O)c1c(NC(=O)CN2C(=O)CCC2=O)sc2c1CCCCC2`, for which the IC50 in test [1] is over 10 µM; in test [2] it was > 10 µM (inactive).

Take `O=C(Nc1cccc(Cl)c1)N1CCN(C/C=C/c2ccccc2)CC1`: the IC50 was over 10 µM in test [1] and > 10 µM (inactive) in test [2].

As to `Cc1ccc(C2N(c3ccc(Cl)c(Cl)c3)C(=O)C3CCCN32)o1` (stereo unspecified), the half-maximal inhibitory concentration (IC50) in test [1] is over 10 µM; in test [2], > 10 µM (inactive).

For the molecule `Cc1ccc(SC(=O)COc2ccc(C)c(C)c2)cc1`, the IC50 in test [1] was over 10 µM; in test [2] it was > 10 µM (inactive).

For `CCc1cc(=O)oc2cc(C)c(CN3CCCC(C)C3)c(O)c12` (stereo unspecified), the IC50 was over 10 µM in test [1] and > 10 µM (inactive) in test [2].

Consider `COc1cccc(NC(=O)C2CCCN2C(=O)OCc2ccccc2)c1` (stereo unspecified), for which the IC50 in test [1] is over 10 µM; in test [2], > 10 µM (inactive).

On to `O=C(NC(C(=O)c1ccccc1)N1CCCCC1)c1ccccc1` (stereo unspecified), for which the IC50 is over 10 µM in test [1] and > 10 µM (inactive) in test [2].

For the molecule `O=C(C1COc2ccccc2O1)N1CCN(Cc2ccc3c(c2)OCO3)CC1` (stereo unspecified), the half-maximal inhibitory concentration (IC50) is over 10 µM in test [1] and 10.4 µM in test [2].

On to `OC(Cn1ccnc1)c1ccc(Cl)cc1Cl` (stereo unspecified), for which the half-maximal inhibitory concentration (IC50) in test [1] was over 10 µM; in test [2] it was > 10 µM (inactive).

As for `CCC(OC(=O)C(NC(=O)c1ccccc1)c1ccccc1)C(=O)Nc1cc(C)on1` (stereo unspecified), the IC50 is over 10 µM in test [1] and > 10 µM (inactive) in test [2].

As for `O=C(Cn1nnc(-c2ccc(S(=O)(=O)N3CCCC3)cc2)n1)NCC1CCCO1` (stereo unspecified), the IC50 was over 10 µM in test [1] and > 10 µM (inactive) in test [2].

As for `Cc1ccc(N2CCN(S(=O)(=O)N3CCCCCC3)CC2)cc1Cl`, the half-maximal inhibitory concentration (IC50) was over 10 µM in test [1] and > 10 µM (inactive) in test [2].

For `Cc1ccn2cc(-c3nonc3C)cc2c1`, the IC50 is over 10 µM in test [1] and > 10 µM (inactive) in test [2].

On to `COc1ccc2c(c1)C(C)=CC(C)(C)N2C(=O)CSc1nnc(-c2ccc(C)cc2)o1`, for which the concentration for half-maximal inhibition (IC50) was over 10 µM in test [1] and > 10 µM (inactive) in test [2].

With `COc1ccc(NC(=O)c2ccc(CN3CCN(c4ccccc4)CC3)cc2)cc1`, the half-inhibitory concentration (IC50) in test [1] was over 10 µM; in test [2], > 10 µM (inactive).

As to `CC1CN(CCCCOc2ccc(C(C)C)cc2)CC(C)O1` (stereo unspecified), the IC50 in test [1] is over 10 µM; in test [2], 0.703 µM.

`O=C(N/N=C/c1ccc(OC(=O)c2ccccc2)cc1)c1ccc(CN2CCOCC2)cc1`: the 50% inhibitory concentration (IC50) is over 10 µM in test [1] and > 10 µM (inactive) in test [2].

`CCC(=O)N(CCO)Cc1cc2ccc(C)c(C)c2[nH]c1=O`: the figures for the half-maximal inhibitory concentration (IC50) in test [1] and in test [2] were over 10 µM and > 10 µM (inactive), respectively.

Regarding `CCOC(=O)Cc1c(C)c2ccc(N(CC)CC)cc2oc1=O`, the IC50 is over 10 µM in test [1] and > 10 µM (inactive) in test [2].

Take `Cc1ccc(Cl)c(OCCCCN(C)Cc2ccccc2)c1`: the IC50 in test [1] was over 10 µM; in test [2], 3.13 µM.

As to `CCN(CC)C(=O)C1CCN(Cc2ccc(Br)cc2)CC1`, the IC50 was over 10 µM in test [1] and > 10 µM (inactive) in test [2].

Regarding `Cc1cc2ncn(CC(O)COc3cccc(C(=O)O)c3)c2cc1C` (stereo unspecified), the IC50 in test [1] was over 10 µM; in test [2], > 10 µM (inactive).

`C=CCc1ccc(OCCCCN2CC(C)OC(C)C2)c(OC)c1` (stereo unspecified): the IC50 in test [1] is over 10 µM; in test [2], 2.33 µM.

As to `Cc1cccc(-c2c3c(=O)n(C)c(=O)n(C)c3cn2C2CCCCC2)c1`, the IC50 in test [1] is over 10 µM; in test [2] it was > 10 µM (inactive).

With `O=C(O)c1ccc(N2CCCCC2)cc1`, the IC50 is over 10 µM in test [1] and > 10 µM (inactive) in test [2].

As to `COc1ccc(-c2cc(N)n(S(=O)(=O)c3c(F)c(F)c(F)c(F)c3F)n2)cc1OC`, the half-maximal inhibitory concentration (IC50) in test [1] was 1.08 µM; in test [2], 2.5 µM (inactive).

For `Cc1cc([N+](=O)[O-])c(-c2ccc(/C=N/n3cnnc3)o2)cc1Cl`, the IC50 was 0.134 µM in test [1] and 0.39 µM (inactive) in test [2].

For the molecule `O=C1c2ccccc2C(=O)c2c1oc(C(F)(F)F)c2C(=O)c1ccccc1`, the figures for the half-maximal inhibitory concentration (IC50) in test [1] and in test [2] were 2.2 µM and 2.92 µM (inactive), respectively.

As to `O=c1c2cccc3c2c(nn1CN1CCOCC1)-c1ccccc1-3`, the IC50 in test [1] was over 10 µM; in test [2] it was > 10 µM (inactive).

In the case of `O=C(CCC(=O)OCC(=O)c1ccc(F)cc1)NC1CCCCC1`, the half-maximal inhibitory concentration (IC50) in test [1] is over 10 µM; in test [2] it was > 10 µM (inactive).

With `COc1ccccc1N1CCN(C2CCN(C(=O)c3cc(OC)c(OC)c(OC)c3)CC2)CC1`, the IC50 is over 10 µM in test [1] and > 10 µM (inactive) in test [2].

As for `Fc1ccc(-c2noc(C3CCN(Cc4cccnc4)CC3)n2)cc1`, the IC50 in test [1] was over 10 µM; in test [2], 6.05 µM.

Turning to `CCN(CC)c1nc2cc(OC)ccc2cc1C#N`, the figures for the IC50 in test [1] and in test [2] were over 10 µM and > 10 µM (inactive), respectively.

`CCOc1ccc(-c2[nH]ncc2Oc2ccccc2OCC)c(O)c1`: the 50% inhibitory concentration (IC50) in test [1] is 16 µM; in test [2] it was 7.98 µM.

For the molecule `Cc1ccc(S(=O)(=O)N(CC(=O)N2CCC(C(N)=O)CC2)c2cccc(C(F)(F)F)c2)cc1`, the IC50 was over 10 µM in test [1] and > 10 µM (inactive) in test [2].

As for `Cc1ccc(CSc2nc3ccccc3cc2C=O)cc1`, the IC50 in test [1] was 2.1 µM; in test [2] it was 2.37 µM (inactive).

As for `O=C(Nc1cc(C(F)(F)F)ccc1-n1cncn1)c1ccc(-c2ccccc2)cc1`, the half-inhibitory concentration (IC50) was over 10 µM in test [1] and > 10 µM (inactive) in test [2].

On to `O=S(=O)(c1ccc(Cl)cc1)N1CCN(C2CCN(Cc3ccccc3)CC2)CC1`, for which the IC50 was over 10 µM in test [1] and 5.15 µM in test [2].

Take `N[C@@H](Cc1c[nH]c2ccccc12)c1nnc(SCc2ccc(Cl)cc2)o1`: the 50% inhibitory concentration (IC50) in test [1] is 20.4 µM; in test [2], 24.8 µM (inactive).

Turning to `Clc1ccc(-c2n[nH]c3c2CCC3)cc1Cl`, the figures for the IC50 in test [1] and in test [2] were 1.81 µM and 2.65 µM (inactive), respectively.

As to `Cc1ccc(C(=O)NCc2occc2C(=O)O)o1`, the IC50 is over 10 µM in test [1] and > 10 µM (inactive) in test [2].

With `COc1ccc(Nc2nc(N)nc(CSc3nnc(N)s3)n2)cc1`, the results for the IC50 in test [1] and in test [2] were over 10 µM and > 10 µM (inactive), respectively.

For `O=C(NCC(=O)N(c1cccnc1)C(C(=O)NCc1ccco1)c1ccccc1)c1ccco1` (stereo unspecified), the IC50 was over 10 µM in test [1] and > 10 µM (inactive) in test [2].

For `N=c1nc(N)nc2n1NC(c1ccc(F)cc1)=CS2`, the values for the IC50 in test [1] and in test [2] were over 10 µM and > 10 µM (inactive), respectively.

For the molecule `Cn1c(=O)cc(NCc2ccccc2)[nH]c1=O`, the 50% inhibitory concentration (IC50) in test [1] was over 10 µM; in test [2], > 10 µM (inactive).

With `O=[N+]([O-])c1ccc(N/N=C/c2c[nH]c3ccccc23)c(S(=O)(=O)Nc2ccc(Cl)cc2)c1`, the 50% inhibitory concentration (IC50) in test [1] is 2.5 µM; in test [2] it was 2.15 µM.

Take `Cc1cc(=O)oc2c(CN3CCCCC3)c(O)c(Cl)cc12`: the 50% inhibitory concentration (IC50) in test [1] is over 10 µM; in test [2], > 10 µM (inactive).

Consider `O=C(OCn1nnc2ccccc2c1=O)c1cn(-c2ccccc2)nc1-c1cccnc1`, for which the 50% inhibitory concentration (IC50) is over 10 µM in test [1] and > 10 µM (inactive) in test [2].

For the molecule `CCOCCCNC(=O)C1CCN(C(=O)N(C)C)CC1`, the 50% inhibitory concentration (IC50) in test [1] is over 10 µM; in test [2], > 10 µM (inactive).

`Cc1cccc(N2CCN(CC(=O)Nc3nccs3)CC2)c1C`: the results for the IC50 in test [1] and in test [2] were over 10 µM and > 10 µM (inactive), respectively.

Consider `O=C(Nc1nnc(-c2ccc3c(c2)CCCC3)o1)c1ccccc1Cl`, for which the IC50 in test [1] is 10.7 µM; in test [2] it was 14.6 µM (inactive).

`CCCCCOc1ccc(CN2CCOCC2)cc1Cl`: the concentration for half-maximal inhibition (IC50) was over 10 µM in test [1] and 3.92 µM in test [2].

Turning to `CCN(CC)CCn1nc(C)nc1-c1ccccc1O`, the half-inhibitory concentration (IC50) in test [1] was over 10 µM; in test [2], > 10 µM (inactive).

Turning to `Cc1ccc(C(C)C)c(OCCCN2CC(C)OC(C)C2)c1` (stereo unspecified), the half-inhibitory concentration (IC50) in test [1] is over 10 µM; in test [2] it was 9.78 µM.

With `CS(=O)(=O)N1CCC(C(=O)NCCN2CCN(Cc3ccccc3)CC2)CC1`, the half-inhibitory concentration (IC50) is over 10 µM in test [1] and > 10 µM (inactive) in test [2].

`COCCCn1c2nc3ccccc3nc2c2c(=O)n(-c3ccccc3OC)cnc21`: the half-maximal inhibitory concentration (IC50) is over 10 µM in test [1] and > 10 µM (inactive) in test [2].

In the case of `Cc1ccc(S(=O)(=O)NC(CC(C)C)C(=O)Oc2ccc3c4c(c(=O)oc3c2)CCC4)cc1` (stereo unspecified), the figures for the half-maximal inhibitory concentration (IC50) in test [1] and in test [2] were over 10 µM and > 10 µM (inactive), respectively.

Take `CC(=O)c1cnc2nc(C)nn2c1C`: the figures for the IC50 in test [1] and in test [2] were over 10 µM and > 10 µM (inactive), respectively.

As to `O=c1c2c3c(sc2ncn1/N=C/c1ccc([N+](=O)[O-])o1)CCCC3`, the IC50 in test [1] was 1.59 µM; in test [2], 1.8 µM (inactive).

Source of the values: PubChem BioAssay AID788 (SRMLSC, 2007).
